The target of assay [1] is T1, PfCRT^3D7 (Plasmodium falciparum, UniProt Q8IBZ9). As to the kind of experiment: cell-based. The assay is classed as cell-based. The text has this:
(§1) The orientation of PfCRT in the parasite’s DV membrane, and also in the oocyte plasma membrane, is such that its N- and C-termini extend into the cytosol. The oocytes were suspended in a reaction buffer adjusted to pH 5.5 to mimic the pH of the DV lumen[1],[2]. In this scenario, the transport of a substrate via PfCRT from the acidic extracellular solution into the oocyte cytosol[15] is analogous to the parasite’s PfCRT-mediated efflux of a substrate from the acidic DV and into the cytosol. Unless specified otherwise, this is the direction in which substrate transport was measured in the oocyte assays.
(§2) Unless specified otherwise, the transport assays were conducted over 1.5 h at 27.5 °C and the reaction buffer was ND96 (96 mM NaCl, 2 mM KCl, 1 mM MgCl2, 1.8 mM CaCl2, 10 mM MES and 10 mM Tris-base) at pH 5.5.
(§3) Ten oocytes were washed twice with the relevant ND96 buffer. […] The assay was terminated by removing the reaction buffer and washing the oocytes with ice-cold ND96 buffer. The oocytes were lysed in 10% (w/v) sodium dodecyl sulfate (SDS) and the radioactivity accumulated within each oocyte was measured with a MicroBeta^2 microplate liquid scintillation analyser (PerkinElmer).
(§4) At least four independent experiments were performed (on different days and using oocytes from different frogs), and within each experiment measurements were made from ten oocytes per treatment.

Assay [2] concerns non-expressing oocytes. In kind it is cell-based, Xenopus laevis. Here is the method:
as §2
The intracellular concentrations were calculated using previous estimates of the volume of stage V–VI oocytes (~400 nL[60]). […] The oocytes were injected with VF-6 suspended in 25 nL ND96 buffer adjusted to pH 5.0, 5.5, 6.0 or 7.0, which corresponded to the injection of 2.5–250 fmol of H^+. The Na^+-dependence of the trans-stimulatory effect of VF-6 was assessed by injecting the oocytes with VF-6 suspended in ND96 buffer (pH 5.5) or a Na^+-free version of this buffer (the Na^+ was replaced with choline).
as §4

Assay [3] relates to non-expressing oocytes. As to the kind of experiment: cells. In kind it is cell-based, Xenopus laevis.
Text: as §1, §2, §3, §4

The target in another assay is T2, PfNT1 (Plasmodium falciparum, UniProt Q8IDM6).
T2 construct: expressed in transfected cells; host or cells: Xenopus laevis oocytes (stage V-VI), cRNA-injected
T2 sequence (Q8IDM6 whole entry): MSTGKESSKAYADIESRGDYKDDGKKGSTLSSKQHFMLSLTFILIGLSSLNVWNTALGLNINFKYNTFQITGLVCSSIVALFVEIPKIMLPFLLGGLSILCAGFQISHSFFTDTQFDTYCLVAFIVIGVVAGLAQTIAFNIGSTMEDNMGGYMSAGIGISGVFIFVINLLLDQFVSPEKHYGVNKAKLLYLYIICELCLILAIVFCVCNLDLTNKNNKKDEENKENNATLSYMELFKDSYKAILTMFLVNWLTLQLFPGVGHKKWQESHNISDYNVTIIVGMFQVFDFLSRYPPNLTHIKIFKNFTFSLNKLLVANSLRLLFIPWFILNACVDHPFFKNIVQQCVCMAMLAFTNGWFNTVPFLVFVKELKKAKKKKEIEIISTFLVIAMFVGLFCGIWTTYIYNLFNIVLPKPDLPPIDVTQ
Nature of the assay: cell-based. The assay is classed as cell-based. In short, it runs like this: (§5)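 Transport measured in Xenopus oocytes expressing the transporters, 1.5 h at 27.5 °C in ND96 pH 5.5 unless noted. For trans-stimulation, VF-6 injected in 25 nL ND96 at pH 5.0–7.0 or Na^+-free (choline) buffer; intracellular levels based on ~400 nL oocyte volume. Ten oocytes per treatment, ≥4 experiments.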

Assay [4] deals with T1, PfCRT^3D7. Nature of the assay: cell-based. The assay is classed as cell-based. In short, it runs like this: as §5
This is another data set of the same source.

Several values for one entry are separate records, joined by “and”; a condition that tells them apart may be missing. Identical values can stand only once.

T1 sequence (Q8IBZ9 59-398): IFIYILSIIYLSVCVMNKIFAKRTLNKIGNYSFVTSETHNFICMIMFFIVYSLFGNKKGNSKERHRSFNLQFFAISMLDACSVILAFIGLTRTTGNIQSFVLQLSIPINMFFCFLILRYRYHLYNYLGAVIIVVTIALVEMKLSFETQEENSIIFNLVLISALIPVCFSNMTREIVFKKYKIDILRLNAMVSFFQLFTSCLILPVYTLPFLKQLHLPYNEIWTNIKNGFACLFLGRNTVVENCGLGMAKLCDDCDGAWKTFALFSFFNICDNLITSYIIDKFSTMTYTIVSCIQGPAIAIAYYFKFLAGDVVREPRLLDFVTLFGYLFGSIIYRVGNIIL

`O=CO` [Formate]: at PfCRT^3D7 [1], the “Cis-inhibition data: total [3H]CQ transport, normalised to the oocyte type control” value was 101 ± 7.3 and 99 ± 3.8 and 100 ± 4.4; the “Total [3H]CQ transport, cis-inhibition by solute” value (shortened to “Total … cis-inhibition by solute”) is 2.4 ± 0.06 and 3.5 ± 0.07 and 3.3 ± 0.07. In the assay on non-expressing oocytes [2], the “Total [3H]CQ transport, trans-stimulation by injected solute” value (shortened to “Total … by injected solute”) was 2.5 ± 0.09 and 3.2 ± 0.08; the “Trans-stimulation data: total [3H]CQ transport, normalised to the oocyte type control” value was 101 ± 3.9 and 99 ± 3.5. Moreover, in the assay on non-expressing oocytes [3], the “Cis-inhibition data: total [3H]CQ transport, normalised to the oocyte type control” value was 100 ± 3.5 and 100 ± 1.8; the “Total … cis-inhibition by solute” value is 2.8 ± 0.03 and 3.2 ± 0.08 and 2.5 ± 0.04. Further, on PfNT1, the “Total … by injected solute” value is 3.1 ± 0.08 and 2.3 ± 0.06; the “Trans-stimulation data: total [3H]CQ transport, normalised to the oocyte type control” value is 101 ± 3.6 and 100 ± 24. In addition, at PfCRT^3D7 [4], the “PfCRT-mediated [3H]CQ transport, trans-stimulation by injected solute, PfCRT3D7” value (“PfCRT-mediated [3H]CQ transport … PfCRT3D7” for short) is 0.8 ± 0.01 and 0.8 ± 0.03; the “Total … by injected solute” value was 3.8 ± 0.01 and 3.8 ± 0.03; the “Trans-stimulation data: PfCRT-mediated [3H]CQ transport” value (“Trans-stimulation data: PfCRT-mediated” for short) was 99 ± 3.7 and 99 ± 3.8; the “Trans-stimulation data: total [3H]CQ transport, normalised to the oocyte type control” value was 101 ± 2.9 and 101 ± 2.8.
For `N[C@@H](CCC(=O)N[C@@H](CS)C(=O)NCC(=O)O)C(=O)O` [Reduced glutathione (GSH)], at PfCRT^3D7 [1], the “Cis-inhibition data: total [3H]CQ transport, normalised to the oocyte type control” value was 100 ± 5.5 and 101 ± 3.7 and 100 ± 4.7; the “Total … cis-inhibition by solute” value is 2.7 ± 0.06 and 3.1 ± 0.08 and 3.3 ± 0.07. In the assay on non-expressing oocytes [2], the “Total … by injected solute” value was 2.7 ± 0.05 and 2.9 ± 0.05; the “Trans-stimulation data: total [3H]CQ transport, normalised to the oocyte type control” value was 99 ± 4.9 and 101 ± 4.7. For the same compound, in the assay on non-expressing oocytes [3], the “Cis-inhibition data: total [3H]CQ transport, normalised to the oocyte type control” value is 99 ± 4.6 and 99 ± 4.5 and 101 ± 2.2; the “Total … cis-inhibition by solute” value is 2.8 ± 0.2 and 2.6 ± 0.08 and 3.2 ± 0.08. Further, on PfNT1, the “Total … by injected solute” value is 3.8 ± 0.07 and 2.7 ± 0.06; the “Trans-stimulation data: total [3H]CQ transport, normalised to the oocyte type control” value was 98 ± 3.8 and 99 ± 4.4. Besides, at PfCRT^3D7 [4], the “PfCRT-mediated [3H]CQ transport … PfCRT3D7” value is 0.2 ± 0.03 and 0.2 ± 0.01; the “Total … by injected solute” value is given as 3.2 ± 0.03; the “Trans-stimulation data: PfCRT-mediated” value was 96 ± 3.7 and 98 ± 3.9; the “Trans-stimulation data: total [3H]CQ transport, normalised to the oocyte type control” value is 98 ± 4.3 and 100 ± 3.8.
Take `O=C(O)CCC(=O)O` [Succinate]: at PfCRT^3D7 [1], the “Cis-inhibition data: total [3H]CQ transport, normalised to the oocyte type control” value is 100 ± 9.7 and 100 ± 3.8 and 99 ± 3.7; the “Total … cis-inhibition by solute” value was 4.2 ± 0.03 and 3.6 ± 0.06 and 3.9 ± 0.1. In the assay with non-expressing oocytes [2], the “Total … by injected solute” value was 3.1 ± 0.03 and 2.2 ± 0.05; the “Trans-stimulation data: total [3H]CQ transport, normalised to the oocyte type control” value is 100 ± 3.7 and 99 ± 3.3. Moreover, in the assay on non-expressing oocytes [3], the “Cis-inhibition data: total [3H]CQ transport, normalised to the oocyte type control” value was 101 ± 4.7 and 101 ± 5.3 and 100 ± 5.3; the “Total … cis-inhibition by solute” value is 2.4 ± 0.06 and 2.8 ± 0.03 and 2.2 ± 0.06. Moreover, at PfNT1, the “Total … by injected solute” value was 2.6 ± 0.04 and 3.3 ± 0.08; the “Trans-stimulation data: total [3H]CQ transport, normalised to the oocyte type control” value was 101 ± 3.7 and 98 ± 3.0. On PfCRT^3D7 [4], the “PfCRT-mediated [3H]CQ transport … PfCRT3D7” value was 0.8 ± 0.04 and 0.6 ± 0.02; the “Total … by injected solute” value is 3.8 ± 0.1 and 3.6 ± 0.03; the “Trans-stimulation data: PfCRT-mediated” value was 99 ± 3.9 and 96 ± 4.0; the “Trans-stimulation data: total [3H]CQ transport, normalised to the oocyte type control” value was 101 ± 2.7 and 98 ± 3.7.
On to `CC[N+](CC)(CC)CC` [Tetraethyl ammonium], for which, at PfCRT^3D7 [1], the “Cis-inhibition data: total [3H]CQ transport in the presence of the solute” value was 98 ± 5.7 and 101 ± 5.2 and 98 ± 5.2; the “Total … cis-inhibition by solute” value is 2.7 ± 0.06 and 3.2 ± 0.08 and 3.7 ± 0.02. Further, in the assay on non-expressing oocytes [2], the “Total [3H]CQ transport, trans-stimulation by solute” value (“Total … trans-stimulation by solute” for short) is 2.5 ± 0.04 and 3.0 ± 0.04; the “Trans-stimulation data: total [3H]CQ transport with the solute injected” value is 99 ± 3.5 and 98 ± 5.7. In the assay on non-expressing oocytes [3], the “Cis-inhibition data: total [3H]CQ transport in the presence of the solute” value is 99 ± 4.8 and 101 ± 4.7 and 99 ± 3.6; the “Total … cis-inhibition by solute” value is 2.2 ± 0.03 and 3.3 ± 0.08 and 2.8 ± 0.03. Moreover, on PfNT1, the “Total … trans-stimulation by solute” value is 3.2 ± 0.1 and 2.8 ± 0.02; the “Trans-stimulation data: total [3H]CQ transport with the solute injected” value is 99 ± 3.5 and 100 ± 3.6. On PfCRT^3D7 [4], the “PfCRT-mediated [3H]CQ transport … PfCRT3D7” value is 0.6 ± 0.02 and 0.7 ± 0.01; the “Total … trans-stimulation by solute” value was 3.6 ± 0.05 and 3.7 ± 0.05; the “Trans-stimulation data: PfCRT-mediated” value is 97 ± 2.2 and 99 ± 2.6; the “Trans-stimulation data: total [3H]CQ transport with the solute injected” value was 99 ± 0.3 and 101 ± 3.7.
Take `Cc1ncc(C[n+]2csc(CCO)c2C)c(N)n1` [Thiamine (Vitamin B1)]: on PfCRT^3D7 [1], the “Cis-inhibition data: total [3H]CQ transport, normalised to the oocyte type control” value was 99 ± 9.3 and 99 ± 3.7 and 99 ± 3.0; the “Total … cis-inhibition by solute” value was 2.8 ± 0.03 and 2.7 ± 0.07 and 2.8 ± 0.05. For the same compound, in the assay with non-expressing oocytes [2], the “Total … by injected solute” value was 2.9 ± 0.04 and 3.9 ± 0.05; the “Trans-stimulation data: total [3H]CQ transport, normalised to the oocyte type control” value is 100 ± 3.7 and 99 ± 4.8. Also, in the assay with non-expressing oocytes [3], the “Cis-inhibition data: total [3H]CQ transport, normalised to the oocyte type control” value was 99 ± 5.1 and 98 ± 5.2 and 100 ± 4.6; the “Total … cis-inhibition by solute” value was 2.7 ± 0.05 and 4.2 ± 0.03 and 2.2 ± 0.06. In addition, at PfNT1, the “Total … by injected solute” value is 3.7 ± 0.08 and 2.7 ± 0.06; the “Trans-stimulation data: total [3H]CQ transport, normalised to the oocyte type control” value stood at 101 ± 3.9. Besides, on PfCRT^3D7 [4], the “PfCRT-mediated [3H]CQ transport … PfCRT3D7” value was determined as 0.1 ± 0.01; the “Total … by injected solute” value was 3.0 ± 0.05 and 3.0 ± 0.03; the “Trans-stimulation data: PfCRT-mediated” value was 99 ± 2.9 and 98 ± 1.9; the “Trans-stimulation data: total [3H]CQ transport, normalised to the oocyte type control” value was 101 ± 3.5 and 100 ± 3.6.

Source of the values: publication PMC7413254 (Nature Communications, 2020).
